# Data as given in the Kinase Knowledgebase extract (Sharma et al. 2016).
# pIC50: −log10 of the molar value. Numbered stars: 1 amine (or outer) side, 2 acyl side, 3 side chain; on linkers, the order of the positions; unused ones are H or OH. Square brackets hold non-standard residues; d marks the D form. Residues, ends and D or L forms follow the SMILES beside them. Peptide text beside a SMILES is read from it. ξ: configuration not given here. *: point of attachment. X1 = CC(=O)C(=O)CCc1ccc(CC(N[*:1])C(=O)[*:2])cc1; X2 = O=CC(=O)CCc1ccc(CC(N[*:1])C(=O)[*:2])cc1; pY = N[C@@H](Cc1ccc(OP(=O)(O)O)cc1)C(=O)O; Ile(3ξ) = CCC(C)[C@H](N)C(=O)O
# Legend:
# [1] = molecular target: EGFR (human) (UniProt P00533)
# [2] = molecular target: EGFR (murine) (UniProt P00533); conditions: f/l-herc
# [3] = molecular target: EGFR (UniProt P00533)
# [4] = molecular target: EGFR (murine) (UniProt P00533); conditions: nih3t3/c7
# [5] = molecular target: EGFR (UniProt P00533); remark: listed apart in the source
# [6] = molecular target: MAPK14 (UniProt Q16539); test: CSBP Inhibition
# [7] = molecular target: EGFR (human) (UniProt P00533); conditions: a431
# [8] = molecular target: MAPK14 (UniProt Q16539); test: Cascade Assay for Inhibitors of the MAP Kinase Pathway
# [9] = molecular target: EGFR (UniProt P00533); remark: listed apart in the source
# [10] = molecular target: PIK3CA (human) (UniProt P42336); test: Assessment of PIK3CA Kinase Activity in NZOV9 Cells
# [11] = molecular target: EGFR (human) (UniProt P00533); remark: listed apart in the source
# [12] = molecular target: EGFR (human) (UniProt P00533); conditions: a431; remark: listed apart in the source
# [13] = molecular target: EGFR (UniProt P00533); remark: listed apart in the source
# [14] = system: MAPK14 (Drosophila); test: p38 Kinase Inhibition; conditions: sf9
# [15] = molecular target: CDK2 (UniProt P24941); test: Enzyme Assay; conditions: concentration not given here
# [16] = molecular target: MAPK14 (UniProt Q16539); test: p38-alpha Kinase Inhibition; conditions: concentration not given here
# [17] = molecular target: ROCK2 (UniProt O75116); test: ROCK2 Kinase Inhibition; conditions: concentration not given here
# [18] = molecular target: MAPK14 (human) (UniProt Q16539); test: Cell-Based Assay; conditions: a375
# [19] = molecular target: EGFR (human) (UniProt P00533); conditions: hn5
# [20] = molecular target: EGFR (human) (UniProt P00533); conditions: a431; remark: listed apart in the source
# [21] = molecular target: EGFR (human) (UniProt P00533); conditions: a431; remark: listed apart in the source
# [22] = molecular target: PIK3CA (human) (UniProt P42336); test: Assessment of PIK3CA Kinase Activity in NZB5 Cells
# [23] = molecular target: EGFR (UniProt P00533); remark: listed apart in the source
# [24] = molecular target: MAPK14 (human) (UniProt Q16539); test: Cellular Inhibition of MAPK14 Kinase in A549 Cells
# [25] = molecular target: EGFR (human) (UniProt P00533); remark: listed apart in the source
# [26] = molecular target: MAPK14 (human) (UniProt Q16539); test: p38-mediated TNF-alpha Inhibition (LPS-Stimulated PBMCs); conditions: pbmc
# [27] = molecular target: EGFR (human) (UniProt P00533); conditions: a549
# [28] = molecular target: MAPK14 (human) (UniProt Q16539); test: TNFalpha Inhibition; conditions: pbmc
# [29] = molecular target: MAPK14 (human) (UniProt Q16539); test: p38 --- TNF Inhibition (PBMC cells)
# EGFR (murine), sequence (P00533 whole entry, looked up): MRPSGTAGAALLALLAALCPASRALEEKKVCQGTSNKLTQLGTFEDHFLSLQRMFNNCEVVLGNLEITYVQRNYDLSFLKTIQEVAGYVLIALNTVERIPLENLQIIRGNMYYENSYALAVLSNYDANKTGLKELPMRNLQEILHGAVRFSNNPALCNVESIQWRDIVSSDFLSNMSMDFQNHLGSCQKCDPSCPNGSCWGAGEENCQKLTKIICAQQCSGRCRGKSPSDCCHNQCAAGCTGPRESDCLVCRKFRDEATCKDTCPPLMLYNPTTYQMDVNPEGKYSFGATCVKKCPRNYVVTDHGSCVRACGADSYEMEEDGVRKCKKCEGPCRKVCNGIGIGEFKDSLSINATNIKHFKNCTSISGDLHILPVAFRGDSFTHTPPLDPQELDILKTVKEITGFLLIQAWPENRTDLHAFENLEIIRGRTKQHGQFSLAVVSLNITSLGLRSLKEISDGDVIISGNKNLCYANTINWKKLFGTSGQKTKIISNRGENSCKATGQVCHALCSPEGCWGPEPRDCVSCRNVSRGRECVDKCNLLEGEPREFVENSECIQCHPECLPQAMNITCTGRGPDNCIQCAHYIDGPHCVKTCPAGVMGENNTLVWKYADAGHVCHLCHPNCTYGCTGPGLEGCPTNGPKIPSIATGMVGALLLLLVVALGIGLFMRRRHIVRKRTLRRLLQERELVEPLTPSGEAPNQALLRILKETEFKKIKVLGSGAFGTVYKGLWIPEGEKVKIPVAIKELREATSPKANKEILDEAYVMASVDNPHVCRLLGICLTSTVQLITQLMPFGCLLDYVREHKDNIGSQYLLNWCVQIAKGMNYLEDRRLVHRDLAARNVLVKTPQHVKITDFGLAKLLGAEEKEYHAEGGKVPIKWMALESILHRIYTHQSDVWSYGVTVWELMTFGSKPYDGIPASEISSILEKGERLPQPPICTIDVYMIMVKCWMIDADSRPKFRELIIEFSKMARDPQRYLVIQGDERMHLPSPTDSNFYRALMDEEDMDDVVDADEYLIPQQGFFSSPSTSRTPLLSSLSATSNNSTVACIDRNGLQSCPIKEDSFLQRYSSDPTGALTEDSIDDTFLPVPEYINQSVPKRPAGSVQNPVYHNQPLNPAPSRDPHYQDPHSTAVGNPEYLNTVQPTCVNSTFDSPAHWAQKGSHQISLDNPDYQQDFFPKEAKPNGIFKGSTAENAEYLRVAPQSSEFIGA
# EGFR (human), sequence (P00533 whole entry, looked up): as above
# EGFR, sequence (P00533 whole entry, looked up): as above
# PIK3CA (human), sequence (P42336 whole entry, looked up): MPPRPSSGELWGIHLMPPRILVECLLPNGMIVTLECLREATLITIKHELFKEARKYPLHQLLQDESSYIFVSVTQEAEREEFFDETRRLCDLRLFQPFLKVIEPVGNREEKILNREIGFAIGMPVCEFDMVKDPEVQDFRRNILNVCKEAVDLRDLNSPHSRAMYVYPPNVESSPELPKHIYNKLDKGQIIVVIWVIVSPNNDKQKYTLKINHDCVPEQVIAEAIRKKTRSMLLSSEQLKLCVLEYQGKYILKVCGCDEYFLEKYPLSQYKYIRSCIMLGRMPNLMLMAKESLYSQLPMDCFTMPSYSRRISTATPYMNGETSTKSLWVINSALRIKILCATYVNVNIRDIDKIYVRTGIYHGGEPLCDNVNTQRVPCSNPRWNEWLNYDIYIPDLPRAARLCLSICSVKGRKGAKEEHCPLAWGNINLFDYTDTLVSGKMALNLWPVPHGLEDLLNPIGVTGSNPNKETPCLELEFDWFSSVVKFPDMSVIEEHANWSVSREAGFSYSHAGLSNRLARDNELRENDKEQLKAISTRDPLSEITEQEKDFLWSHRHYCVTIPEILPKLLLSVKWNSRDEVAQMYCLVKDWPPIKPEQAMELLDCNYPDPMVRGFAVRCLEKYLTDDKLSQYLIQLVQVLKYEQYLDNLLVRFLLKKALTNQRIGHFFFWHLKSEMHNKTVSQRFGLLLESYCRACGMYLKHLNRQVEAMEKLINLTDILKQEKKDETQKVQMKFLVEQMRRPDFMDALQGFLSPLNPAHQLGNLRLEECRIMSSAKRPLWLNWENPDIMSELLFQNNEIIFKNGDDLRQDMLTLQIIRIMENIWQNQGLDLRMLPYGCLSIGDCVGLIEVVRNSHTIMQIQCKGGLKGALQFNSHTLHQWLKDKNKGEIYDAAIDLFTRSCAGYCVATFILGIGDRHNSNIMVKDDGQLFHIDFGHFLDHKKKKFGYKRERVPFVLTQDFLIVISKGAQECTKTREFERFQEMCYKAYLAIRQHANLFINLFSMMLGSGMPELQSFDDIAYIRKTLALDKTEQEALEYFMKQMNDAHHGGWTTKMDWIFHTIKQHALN
# MAPK14, sequence (Q16539 whole entry, looked up): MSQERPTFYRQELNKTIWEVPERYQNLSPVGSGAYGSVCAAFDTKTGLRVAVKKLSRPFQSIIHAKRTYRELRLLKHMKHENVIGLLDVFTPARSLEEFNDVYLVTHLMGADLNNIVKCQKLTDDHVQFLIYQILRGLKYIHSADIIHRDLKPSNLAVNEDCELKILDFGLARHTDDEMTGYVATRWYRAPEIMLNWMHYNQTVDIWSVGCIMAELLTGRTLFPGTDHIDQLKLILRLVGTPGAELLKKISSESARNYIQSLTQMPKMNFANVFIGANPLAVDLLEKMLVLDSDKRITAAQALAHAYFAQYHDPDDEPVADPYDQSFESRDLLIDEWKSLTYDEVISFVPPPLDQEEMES
# MAPK14 (human), sequence (Q16539 whole entry, looked up): as above
compound,measurement,setting,value
C=CC(=O)N1CCC[C@H](n2cnc3c(N)nc(Nc4ccc(N5CCOCC5)cc4)nc32)C1,pIC50,[1],6.22
O=C(N(c1ncc2ncnc(Nc3ccc(F)c(Cl)c3)c2n1)C1CCNCC1)C(F)(F)F,pIC50,[2],< 4.70
COc1cc2ncnc(N(C)c3ccccc3)c2cc1OC,pIC50,[3],5.40
O=C1Nc2ccccc2C1=Cc1ccc(N2CCOCC2)cc1,pIC50,[4],4.70
FC(F)(F)c1cccc(Nc2ncnc3ccccc23)c1,pIC50,[5],6.24
CC(=O)OCCCCc1nc(-c2ccc(F)cc2)c(-c2ccncc2)n1COCC[Si](C)(C)C,inhibition,[6]; concentration not given here,74%
O=C(Cc1ccc(F)cc1)Nc1cc(SC[C@@H](O)CO)cc([N+](=O)[O-])c1,pIC50,[7],4.54
CCOc1ccc(-c2cc(C(F)(F)F)c(C#N)c(SCC(=O)NCC(=O)O)n2)cc1,pIC50,[7],< 4.30
COc1ccc(CN(Cc2ccc(OC)cc2)S(=O)(=O)c2cc(C(=O)NOCC3CC3)c(Nc3ccc(I)cc3Cl)c(F)c2F)cc1,pIC50,[8],< 5.52
COc1cc2cc(C3C=CC=C3)cnc2cc1OC,pIC50,[9],< 4.70
COc1ccc(CN(Cc2ccc(OC)cc2)S(=O)(=O)c2cc(C(=O)O)c(Nc3ccc(I)cc3Cl)c(F)c2F)cc1,pIC50,[8],5.52
Cc1ccc([N+](=O)[O-])cc1S(=O)(=O)N(C)N=Cc1cnn2cccc(C)c12,pIC50,[10],< 4.70
Cc1ncnc(Nc2ccc(OCc3cccc(F)c3)c(Cl)c2)c1-c1ccc(CNC2CC2)cc1,pIC50,[11],7.01
CCOc1cc2ncnc(Nc3ccc(F)c(Cl)c3)c2cc1NC(=O)/C=C/[C@H]1CCCN1C,pIC50,[12],8.10
Ic1cccc(Nc2ncnc3ccccc23)c1,pIC50,[5],7.10
O=C1NC(=O)C(c2cn(CCOCCO)c3ccccc23)=C1c1c[nH]c2ccccc12,inhibition,[13],0
Cc1cc(F)ccc1-c1nc(N(C(N)=O)c2c(F)cccc2F)ccc1CO,pIC50,[14],7.57
CN(C)CCCn1cc(C2=C(c3c[nH]c4ccccc34)C(=O)NC2=O)c2ccccc21,activity,[15],42%
same,activity,[16],99%
same,activity,[17],89%
same,inhibition,[13],0
CCCS(=O)(=O)Nc1ccc(F)c(C(=O)c2c[nH]c3ncc(Cl)cc23)c1F,pIC50,[18],< 5.00
Oc1ccc(-c2nc3c(O)cc(O)cc3s2)cc1,pIC50,[19],3.52
Cc1ccccc1Cc1cc2c(Nc3ccc(Cl)cc3F)nc(N)nc2[nH]1,pIC50,[20],< 3.70
same,pIC50,[21],< 3.70
Cc1ccccc1Cc1cc2c(Nc3ccc(Cl)cc3)nc(N)nc2[nH]1,pIC50,[20],6.62
same,pIC50,[21],5.25
CC(=NN(C)S(=O)(=O)c1cc([N+](=O)[O-])ccc1C)c1cnn2ccc(Br)cc12,pIC50,[22],< 4.70
same,pIC50,[10],< 4.70
CCOc1cc2ncc(C#N)c(Nc3ccc(OCc4ccccn4)c(Cl)c3)c2cc1NC(=O)/C=C/[C@@H]1CCCN1,pIC50,[12],8.52
CCC(C)[C@H](NC(=O)[C@H](CCC(=O)O)NC(=O)[C@H](CCC(=O)O)NC(=O)C(Cc1ccc(CCC(=O)C=O)cc1)NC(C)=O)C(=O)N[C@@H](CCC(=O)O)C(=O)O (stereo partly drawn) (Ac-[X2]EE[Ile(3ξ)]E-OH),pIC50,[23],≥ 3.73
COC(=O)CCc1c(C)c[nH]c1C=C1C(=O)Nc2ccccc21,IC100,[4],100 µM
Oc1ccc(-c2nc3ccc(O)cc3s2)cc1,pIC50,[19],3.89
Cc1ccccc1-c1nc(N(C(N)=O)c2c(Cl)cccc2Cl)ccc1CO,pIC50,[14],7.25
CCOC(=O)CCc1c(C=C2C(=O)Nc3ccccc32)[nH]c(C(=O)OCC)c1CC(=O)OCC,pIC50,[4],4.30
C=CC(=O)N1CCC[C@H](n2cnc3c(N)nc(Nc4ccc(OCCOC)cc4)nc32)C1,pIC50,[1],6.98
COC(=O)N[C@@H](C)CNc1nccc(-c2cn(C(C)C)nc2-c2cc(Cl)cc(NS(C)(=O)=O)c2F)n1,pIC50,[24],5.66
COc1ccc(/C=C/c2cnc3cc(OC)c(OC)cc3c2)cc1,pIC50,[9],< 4.70
C=CC(=O)N1CCC[C@H](n2cnc3c(N)nc(Nc4ccc(N5CCCCC5)cc4)nc32)C1,pIC50,[1],6.46
COC(=O)NC[C@H](C)Nc1nccc(-c2cn(C(C)C)nc2-c2cc(Cl)cc(NS(C)(=O)=O)c2F)n1,pIC50,[24],6.16
CNc1nccc(-c2cn(C(C)C)nc2-c2cc(Cl)cc(NS(C)(=O)=O)c2F)n1,pIC50,[24],4.77
C#Cc1cccc(Nc2ncnc3cc(OC)c(OCCCCCCC(=O)O)cc23)c1,pIC50,[25],≥ 7.00
CSc1ccc(-c2ncn(C3CCN(CCC(=O)O)CC3)c2-c2ccnc(SC)n2)cc1,pIC50,[6],> 4.30
CN(Cc1cccnc1)S(=O)(=O)c1cc(C(=O)O)c(Nc2ccc(I)cc2Cl)c(F)c1F,pIC50,[8],< 5.52
CN1C2CC[C@@]1(Nc1ncc3ncnc(Nc4ccc(F)c(Cl)c4)c3n1)CC(O)C2 (stereo partly drawn),pIC50,[2],< 5.00
Oc1cc2cc(-c3cccnc3)cnc2cc1O,pIC50,[9],5.90
COc1cc2ncnc(Nc3ccccc3)c2cc1OC,pIC50,[3],7.30
C#Cc1cc(Nc2ncnc3cc(OC)c(OCCCCCCC(=O)O)cc23)ccc1O,pIC50,[25],≥ 7.00
CNC(=O)[C@H](CCCCN)NC(=O)[C@H](CCCCN)NC(=O)[C@@H]1CCCN1C(=O)[C@H](CSCCOCCOCCn1cc(C2=C(c3c[nH]c4ccccc34)C(=O)NC2=O)c2ccccc21)NC(C)=O (Ac-C(X1)PKK-NHMe),inhibition,[13],0
CN(C)CCOc1ccc(-c2nc(-c3ccc4c(c3)CC/C4=N\O)c(-c3ccncc3)[nH]2)cc1,pIC50,[18],< 5.00
Cc1ccccc1SC1=NN2CNC(=O)C(c3c(Cl)cccc3Cl)=C2C=C1,pIC50,[26],6.68
C[S+]([O-])c1ccc(-c2ncn(C3CCN(CCC(=O)O)CC3)c2-c2ccnc([S+](C)[O-])n2)cc1 (stereo not drawn),pIC50,[6],< 4.30
Cc1cc(F)ccc1-c1nc(N(C(N)=O)c2c(Cl)cccc2Cl)ccc1CO,pIC50,[14],8.70
O=C1Nc2ccc(I)cc2/C1=C/c1cc(Br)c(O)c(Br)c1,pIC50,[18],< 5.00
CCC(C)[C@H](NC(=O)[C@H](CCC(=O)O)NC(=O)[C@H](CCC(=O)O)NC(=O)C(Cc1ccc(CCC(=O)C(C)=O)cc1)NC(C)=O)C(=O)N[C@@H](CCC(=O)O)C(=O)O (stereo partly drawn) (Ac-[X1]EE[Ile(3ξ)]E-OH),pIC50,[23],≥ 3.59
Cc1ccc([N+](=O)[O-])cc1S(=O)(=O)N(C)N=Cc1cnn2ccc(O)cc12,pIC50,[22],< 4.70
same,pIC50,[10],< 4.70
O=C1NCN2N=C(Sc3ccc(F)cc3)C=CC2=C1c1c(Cl)cccc1Cl,pIC50,[26],6.41
Oc1cc(O)c2nc(-c3ccc(O)c(O)c3)sc2c1,pIC50,[19],3.89
COc1cc(O)c2c(=O)n(-c3cccc(C(=O)N4CCCCC4)c3)ccc2c1NC(=O)Nc1ccc(C(=O)N2CCN(C)CC2)cc1,pIC50,[27],< 4.00
C#CCCCN1CCN(Cc2c(C)ncnc2Nc2ccc(OCc3cccc(F)c3)c(Cl)c2)CC1,pIC50,[11],8.05
Cn1c(NCc2cccc(C(F)(F)F)c2)cc(=O)n(C)c1=O,pIC50,[7],< 4.30
CCC(C)[C@H](NC(=O)[C@H](CCC(=O)O)NC(=O)[C@H](CCC(=O)O)NC(=O)[C@H](Cc1ccc(OP(=O)(O)O)cc1)NC(C)=O)C(=O)N[C@@H](CCC(=O)O)C(=O)O (stereo partly drawn) (Ac-[pY]EE[Ile(3ξ)]E-OH),pIC50,[23],≥ 6.30
Cc1ccc(NC(=O)c2ccnc(N3CCOCC3)c2)cc1-n1cnc2c(N(C)CCCN(C)C)cccc2c1=O,pIC50,[28],5.15
C#Cc1cccc(Nc2ncnc3cc(OC)c(OCCCCC(=O)O)cc23)c1,pIC50,[25],≥ 7.00
O=c1ncn2nc(Sc3ccc(Cl)c(Cl)c3)ccc2c1-c1c(Cl)cccc1Cl,pIC50,[29],5.66
COC(=O)c1ccccc1Sc1ccc2c(-c3c(Cl)cccc3Cl)c(=O)ncn2n1,pIC50,[26],6.43
CCOc1cc2ncc(C#N)c(Nc3ccc(OCc4ccccn4)c(Cl)c3)c2cc1NC(=O)/C=C/[C@@H]1C[C@@H](O)CN1C,pIC50,[12],7.44
O=[N+]([O-])c1ccc2ncnc(Nc3cccc(Br)c3)c2c1,pIC50,[5],6.05
Cc1ncnc(Nc2ccc(OCc3cccc(F)c3)c(Cl)c2)c1-c1ccc(CNC(C)C)cc1,pIC50,[11],7.62
Cc1ccc(NC(=O)c2ccnc(N3CCOCC3)c2)cc1-n1cnc2ccc(N(C)CCCN(C)C)cc2c1=O,pIC50,[28],5.70
Nc1nc(Nc2ccc(Cl)cc2F)c2cc(Cc3cccc4ccccc34)[nH]c2n1,pIC50,[20],< 3.70
same,pIC50,[21],4.33
